From US20250230171A1 (MOMA Therapeutics, Inc., priority 2023, published 2025)
Where two headings read alike, the source gives them in different places.

Target: biotinylated Avi-POLθ[2-894] (Homo sapiens (Human), UniProt O75417)
Experiment: POLθ ATPase assay (ADP-Glo)
Details: n=2, read-out: Biochemical ATPase ADPGlo IC50
Description: In some embodiments, the ATPase assay a compound of the present disclosure is combined with biotinylated Avi-POLθ[2-894], a 50 nucleotide poly-thymine repeat single-stranded DNA, and ATP in buffer. In some embodiments, the mixture is incubated and ADP-Glo Reagent added, followed by a subsequent incubation. In some embodiments, a Kinase Detection Reagent may be added, followed by a third incubation. In some embodiments, the activity is measured via luminescence signal (e.g., measured with the EnVision multimode plate reader). POLθ-mediated ATP hydrolysis was measured using the ADP-Glo Kinase Assay (Promega Corporation, Madison, WI). Reactions were performed in white 384-well small-volume microplates (Greiner Bio-One, Frickenhausen, Germany) using a total volume of 15 μL. The ATPase reaction consisted of 1 nM biotinylated Avi-POLθ[2-894], 5 nM of a 50 nucleotide poly-thymine repeat single-stranded DNA (PolyT(50) ssDNA), and 100 μM ATP in 5 μL of assay buffer (50 mM Tris, pH 7.5, 80 mM KCl, 10 MgCl2, 1 mM DTT, 5% glycerol, 0.01% BSA, 0.01% Tween-20). Inhibition of POLΘATPase activity was determined by preparing 11-point serial dilutions of the test compounds in 100% DMSO, then transferring 30 nL of the compounds into the ATPase reaction using an Echo acoustic liquid handler (Beckman Coulter, Brea, CA). DMSO-treated wells containing either all of the reaction components (1 nM biotinylated Avi-POLθ[2-894], 5 nM PolyT(50) ssDNA, 100 μM ATP) or with assay buffer substituted for the biotinylated Avi-POLθ[2-894](0 nM biotinylated Avi-POLθ[2-894], 5 nM PolyT(50) ssDNA, 100 μM ATP) were used to define the maximum and minimum response in the assay. Following a one-hour incubation at ambient temperature, 5 μL of ADP-Glo Reagent was added to the ATPase reaction, and this mixture was allowed to incubate at ambient temperature for an additional hour. Lastly, 5 μL of Kinase Detection Reagent was added, followed by a third one-hour incubation at ambient temperature. […] Luminescence signal was measured using the EnVision multimode plate reader (Perkin Elmer. Waltham. MA). […] Non-linear regression analysis using the four-parameter logistic equation was conducted on the percent activity values of the compound dose-responses, yielding the AC50 value for each compound. Genedata Screener (Genedata. Basel, Switzerland) was used for the data analysis.

Chain of biotinylated Avi-POLθ[2-894] (O75417 2-894): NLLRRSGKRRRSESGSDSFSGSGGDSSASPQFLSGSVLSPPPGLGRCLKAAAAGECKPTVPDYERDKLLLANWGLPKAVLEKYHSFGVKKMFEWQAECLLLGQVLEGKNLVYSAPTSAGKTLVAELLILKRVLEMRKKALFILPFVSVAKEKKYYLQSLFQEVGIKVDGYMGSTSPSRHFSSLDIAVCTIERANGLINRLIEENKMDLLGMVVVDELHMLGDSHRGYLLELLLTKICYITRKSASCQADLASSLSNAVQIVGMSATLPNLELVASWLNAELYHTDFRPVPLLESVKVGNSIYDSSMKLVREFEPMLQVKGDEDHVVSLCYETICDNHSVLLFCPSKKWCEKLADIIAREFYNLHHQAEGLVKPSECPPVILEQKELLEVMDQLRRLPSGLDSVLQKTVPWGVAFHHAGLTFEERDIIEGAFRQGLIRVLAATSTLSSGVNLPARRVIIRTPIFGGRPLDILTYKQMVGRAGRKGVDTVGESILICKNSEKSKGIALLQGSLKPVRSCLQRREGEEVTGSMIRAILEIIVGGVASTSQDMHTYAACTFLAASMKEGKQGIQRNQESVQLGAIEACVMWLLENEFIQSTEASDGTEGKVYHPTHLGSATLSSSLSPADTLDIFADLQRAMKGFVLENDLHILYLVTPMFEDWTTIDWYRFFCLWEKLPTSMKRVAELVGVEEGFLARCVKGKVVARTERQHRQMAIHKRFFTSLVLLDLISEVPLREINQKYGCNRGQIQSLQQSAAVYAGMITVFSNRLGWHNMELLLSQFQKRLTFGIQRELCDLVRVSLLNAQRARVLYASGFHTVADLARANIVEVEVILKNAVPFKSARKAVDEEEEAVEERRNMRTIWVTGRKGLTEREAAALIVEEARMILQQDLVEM

| Compound | IC50 [nM] | IC50 (POLθ ATPase, ADP-Glo) [nM] |
| --- | --- | --- |
| COc1ccccc1-c1cc(C)ncc1C(=O)Nc1nc2c(s1)CC(c1ccc(Cl)cc1)=CC2 [Example 328] | 150 to 900 | – |
| COc1cnc(Cl)cc1-c1cc(C)ncc1C(=O)Nc1nc2c(s1)CN(C(=O)[C@@H]1CCC[C@](O)(C(F)(F)F)C1)C2 [Example 761] | – | 1 to 15 |
| COc1ccccc1-c1cc(C)ncc1C(=O)Nc1nc2c(s1)CN(C1CCCCC1)CC2 | ≥ 900 | – |
| COc1cnc(Cl)cc1-c1cc(C)ncc1C(=O)Nc1nc2c(s1)C[C@@H](C(=O)N[C@H]1C[C@H](O)C1)CC2 [Example 669] | – | 150 to 900 |
| COc1ccc(C#N)cc1-c1cc(C)ncc1C(=O)Nc1nc2c(s1)CN(C(=O)C1CCOCC1)CC2 | 150 to 900 | – |
| COc1ccccc1-c1cc(C)ncc1C(=O)Nc1nc2c(s1)CN(C(=O)c1nc3ccccn3n1)C2 [Example 252] | 50 to 150 | – |
| COc1ccc(C#N)cc1-c1cc(C)ncc1C(=O)Nc1nc2c(s1)CN(C(=O)C1COC1)CC2 (single isomer, unassigned) | 150 to 900 | – |
| COc1ccc(C#N)cc1-c1cc(C)ncc1C(=O)Nc1nc2c(s1)CN(C(=O)C1CC(OC(F)F)C1)CC2 (stereo not shown) [Example 176] | 50 to 150 | – |
| COc1ccc(C#N)cc1-c1cc(C)ncc1C(=O)Nc1nc2c(s1)CN(S(=O)(=O)c1cccnc1)C2 | 50 to 150 | – |
| COc1cnc(Cl)cc1-c1cc(C)ncc1C(=O)Nc1nc2c(s1)CN(C(=O)c1nccs1)C2 | – | 1 to 15 |
| COc1ccccc1-c1cc(C)ncc1C(=O)Nc1nc2c(s1)CN(C(=O)c1ccnn1C)C2 | 50 to 150 | – |
| COc1cnc(Cl)cc1-c1cc(C)ncc1C(=O)Nc1nc2c(s1)CN(C(=O)c1ncc(C)nc1C)C2 | – | 1 to 15 |
| COc1cnc(Cl)cc1-c1cc(C)ncc1C(=O)Nc1nc2c(s1)C[C@@H](C(=O)N1CC[C@@H](O)C1)CC2 [Example 681] | – | 150 to 900 |
| COc1ccccc1-c1cc(C)ncc1C(=O)Nc1nc2c(s1)CC(Oc1ccccc1)CC2 (stereo not shown) | ≥ 900 | – |
| COc1ccccc1-c1cc(C)ncc1C(=O)Nc1nc2c(s1)CN(C(=O)C1(C)COC1)C2 | ≥ 900 | – |
| COCC1(C(=O)N2Cc3nc(NC(=O)c4cnc(C)cc4-c4ccccc4OC)sc3C2)CCC1 (racemic) | 150 to 900 | – |
| COc1cnnc(C(=O)N2Cc3nc(NC(=O)c4cnc(C)cc4-c4cc(Cl)ncc4OC)sc3C2)c1 | – | 15 to 50 |

Now from value to compound:

| IC50 [nM] | IC50 (POLθ ATPase, ADP-Glo) [nM] | Compound |
| --- | --- | --- |
| 1 to 15 | – | COc1cnc(Cl)cc1-c1cc(C)ncc1C(=O)Nc1nc2c(s1)CN(C(=O)c1nn(C)cc1C)C2 [Example 65, 2′-chloro-N-(5-(1,4-dimethyl-1H-pyrazole-3-carbonyl)-5,6-dihydro-4H-pyrrolo[3,4-d]thiazol-2-yl)-5′-methoxy-6-methyl-[4,4′-bipyridine]-3-carboxamide] |
| 50 to 150 | – | CNS(=O)(=O)N1Cc2nc(NC(=O)c3cnc(C)cc3-c3ccccc3OC)sc2C1 |
| 1 to 15 | – | COc1cnc(Cl)cc1-c1cc(C)ncc1C(=O)Nc1nc2c(s1)CN(C(=O)[C@@H]1CCOC1)C2 [Example 181] |
| 1 to 15 | – | COc1ccc(C#N)cc1-c1cc(C)ncc1C(=O)Nc1nc2c(s1)CN(C(=O)C1CC1C)CC2 (mixture of isomers) [Example 212, 4-(5-cyano-2-methoxyphenyl)-6-methyl-N-(5-(2-methylcyclopropane-1-carbonyl)-4,5,6,7-tetrahydrothiazolo[5,4-c]pyridin-2-yl)nicotinamide Mixture of isomers] |
| 1 to 15 | – | COc1cnc(Cl)cc1-c1cc(C)ncc1C(=O)Nc1nc2c(s1)CN(C(=O)c1c(C(F)F)nn(C)c1F)C2 [Example 59, 2′-chloro-N-(5-(3-(difluoromethyl)-5-fluoro-1-methyl-1H-pyrazole-4-carbonyl)-5,6-dihydro-4H-pyrrolo[3,4-d]thiazol-2-yl)-5′-methoxy-6-methyl-[4,4′-bipyridine]-3-carboxamide] |
| 15 to 50 | – | COc1ccc(C#N)cc1-c1cc(C)ncc1C(=O)Nc1nc2c(s1)CN(C(=O)[C@H]1C[C@H](OC)C1)C2 [Example 221] |
| 1 to 15 | – | COc1cnc(Cl)cc1-c1cc(C)ncc1C(=O)Nc1nc2c(s1)CN(C(=O)c1cnn(CC(F)F)c1)C2 |
| 15 to 50 | – | COc1ccc(C#N)cc1-c1cc(C)ncc1C(=O)Nc1nc2c(s1)CN(C(=O)[C@@H]1CCCO1)C2 [Example 261] |
